Drawing on ChEMBL document CHEMBL1152642, “Semisynthetic latrunculin B analogs: studies of actin docking support a proposed mechanism for latrunculin bioactivity” (Bioorg Med Chem, 2009), this text covers Activity for twelve compounds.

What all share (type): functional, organism-based
In experiment [1] the test system is Saccharomyces cerevisiae. Briefly: Antimicrobial activity against Saccharomyces cerevisiae NRRL Y2034 by twofold dilution method.
Experiment [2] concerns Candida albicans. Briefly: Antimicrobial activity against Candida albicans by twofold dilution method.
Experiment [3] deals with Aspergillus flavus. Briefly: Antimicrobial activity against Aspergillus flavus NRRL 501 by twofold dilution method.

The source made the active and inactive calls. No cut-off for these calls is given here.

On to `CCCCCCN1C(=O)SC[C@H]1[C@@]1(OC)C[C@H]2C[C@@H](CC[C@H](C)/C=C\CC/C(C)=C\C(=O)O2)O1`, for which the result in experiment [1], in experiment [2] and in experiment [3] was inactive.

With `CCCCCCCCCCN1C(=O)SC[C@H]1[C@@]1(O)C[C@H]2C[C@@H](CC[C@H](C)/C=C\CC/C(C)=C\C(=O)O2)O1`, the result in experiment [1], in experiment [2] and in experiment [3] was inactive.

On to `C/C1=C/C(=O)O[C@@H]2C[C@@H](CC[C@H](C)/C=C\C=C\CC1)O[C@@](O)([C@@H]1CSC(=O)N1)C2`, for which the result in experiment [1], in experiment [2] and in experiment [3] was Active.

With `CCCCCCCCN1C(=O)SC[C@H]1[C@@]1(OC)C[C@H]2C[C@@H](CC[C@H](C)/C=C\CC/C(C)=C\C(=O)O2)O1`, the result in experiment [1], in experiment [2] and in experiment [3] was inactive.

Turning to `CCCCCCCCCCN1C(=O)SC[C@H]1[C@@]1(OC)C[C@H]2C[C@@H](CC[C@H](C)/C=C\CC/C(C)=C\C(=O)O2)O1`, the outcome in experiment [1], in experiment [2] and in experiment [3] was inactive.

Turning to `CCCCCN1C(=O)SC[C@H]1[C@@]1(OC)C[C@H]2C[C@@H](CC[C@H](C)/C=C\CC/C(C)=C\C(=O)O2)O1`, the outcome in experiment [1], in experiment [2] and in experiment [3] was inactive.

`C/C1=C/C(=O)O[C@@H]2CC(CC[C@H](C)/C=C\C=C\CC1)O[C@@](O)([C@H]1CSC(=O)N1)C2`: the result in experiment [1], in experiment [2] and in experiment [3] was Active.

In the case of `CO[C@]1([C@@H]2CSC(=O)N2C)C[C@H]2C[C@@H](CC[C@H](C)/C=C\CC/C(C)=C\C(=O)O2)O1`, the result in experiment [1], in experiment [2] and in experiment [3] was inactive.

Turning to `C/C1=C/C(=O)O[C@@H]2C[C@@H](CC[C@H](C)/C=C\CC1)O[C@@](O)([C@H]1CSC(=O)N1)C2`, the result in experiment [1], in experiment [2] and in experiment [3] was Active.

With `CCCCCCCCCN1C(=O)SC[C@H]1[C@@]1(OC)C[C@H]2C[C@@H](CC[C@H](C)/C=C\CC/C(C)=C\C(=O)O2)O1`, the result in experiment [1], in experiment [2] and in experiment [3] was inactive.

Consider `C/C1=C/C(=O)O[C@@H]2C[C@@H](CC[C@H](C)/C=C\CC1)O[C@@](O)([C@@H]1CSC(=O)N1)C2`, for which the outcome in experiment [1], in experiment [2] and in experiment [3] was Active.

Consider `CO[C@]1([C@@H]2CSC(=O)N2)C[C@H]2C[C@@H](CC[C@H](C)/C=C\CC/C(C)=C\C(=O)O2)O1`, for which the result in experiment [1], in experiment [2] and in experiment [3] was inactive.
